ChEMBL document CHEMBL1154020, “Tricyclic indole and dihydroindole derivatives as new inhibitors of soluble guanylate cyclase” (Bioorg Med Chem Lett, 2009)
Active and inactive are the calls of the source. The rule behind the calls is not given here.

How the values were obtained:
[1] = organism: Rattus norvegicus; assay: Inhibition of soluble guanylate cyclase in rat aortic smooth muscle cells assessed as decrease in SNP-induced cGMP production at 100 uM pretreated 30 min before SNP challenge by enzyme immunoassay
[2] = organism: Rattus norvegicus; assay: Inhibition of soluble guanylate cyclase in rat aortic smooth muscle cells assessed as decrease in SNP-induced cGMP production at 1 uM pretreated 30 min before SNP challenge by enzyme immunoassay
[3] = organism: Rattus norvegicus; assay: Inhibition of soluble guanylate cyclase in rat aortic smooth muscle cells assessed as decrease in SNP-induced cGMP production pretreated 30 min before SNP challenge by enzyme immunoassay
[4] = organism: Rattus norvegicus; assay: Inhibition of soluble guanylate cyclase in rat aortic smooth muscle cells assessed as decrease in cGMP production at 100 uM after 30 mins by enzyme immunoassay
[5] = organism: Rattus norvegicus; assay: Inhibition of particulate guanylate cyclase in rat aortic smooth muscle cells assessed as decrease in ANF-induced cGMP production at 100 uM pretreated 30 min before ANF challenge by enzyme immunoassay

Row | Activity [1] | Activity [2] | Activity [3] | Activity [4] | Activity [5] | SMILES
1 | Active | – | – | – | – | CCOCn1ccc2c1CCc1cnn(-c3ccccc3)c1-2
2 | Active | inactive | – | – | – | CCOCn1ccc2c1CCc1cnoc1-2
3 | Active | Active | – | – | – | CCOCn1ccc2c1CCc1cnn(C)c1-2
4 | – | – | Dose-dependent effect | inactive | inactive | CCOCn1ccc2c3oncc3ccc21
